{"source": "patent US20110189260A1", "about": "“USE OF ZINC CHELATORS TO INHIBIT BIOFILM FORMATION” (UNIVERSITY OF CINCINNATI, priority 2008, published 2011)", "molecules": {"B1": {"name": "H75A/H85A Brpt1.5 mutant (other)", "chain": "VDGDSITSTEEIPFDKKREFDPNLAPGTEKVVQKGEPGTKTITTPTTKNPLTGEKVGEGEPTEKITKQPVDEIVAYGGEQIPQGAKDEFDPNAPVDSKTEVPGKPGVKNPDTGEVVTPPVDDVTKYGPVDGDSITSTEEIPFDKKREFDPNLAPGTEKVVQKGEPGTKTITTPTTKNPLTGEKVGEGKSTEKVTKQPVDEIVEYGPTK", "notes": "also called histidine-null mutant"}, "B2": {"name": "Brpt1.5: single G5 domain of Aap B-repeat region followed by the C-terminal 79 amino acid half-repeat (protein)", "chain": "B1 chain with A75H, A85H"}, "B3": {"name": "Brpt1.5 (C-terminal G5 domain of the B-repeat region of Aap followed by the C-terminal 79 amino acid half-repeat) (other)", "chain": "B1 chain with A75H, A85H", "notes": "also called wild-type Brpt1.5; zinc adhesion module"}}, "key": {"[1]": {"system": "Methicillin-Resistant Staphylococcus epidermidis Strain RP62a", "test": "Biofilm formation assay in 96 well plates, crystal violet, absorbance at 570 nm (Example 8)", "format": "cell-based", "conditions": "18-24 hours, 37° C.", "method": "S. epidermidis strain RP62a (ATCC 35984) was obtained as a glycerol stock from ATCC. 3 ml overnight cultures were grown in tryptic soy broth (TSB, BD Biomedical), shaking at 37° C., and cultures were diluted 1:200 in TSB for use in the biofilm assay.\nEach chelator (prepared in Examples 1-6) was added directly to a 96 well microtiter plate in a series of dilutions. 20 μl of each stock solution (200, 400, 800, 1600, 3200, 6400, 13000, or 26000 μM chelator) was added to each well. 200 μl of the 1:200 dilution of RP62a bacterial culture (as previously specified) was added to each well. Controls with bacterial culture media only and bacterial culture media plus vehicle controls only (i.e., final concentrations 10 mM HCl, 10% ethanol, or 10 mM NaOH) were added to wells alone without chelator. The 96 well plates were then incubated 18-24 hours statically at 37° C. Media was aspirated by pipet and wells were washed twice with filtered water. The plates were dried by inversion for 1 hour, and stained with 0.1% crystal violet for 15 minutes. Crystal violet was then aspirated by pipet and washed once with filtered water. The plates were then read on a spectrophotometer at a wavelength of 570 nm. An absorbance greater than 0.1 indicates biofilm formation."}, "[2]": {"system": "Methicillin-resistant S. aureus USA300 biofilms", "test": "USA300 biofilms on fibronectin-coated plates (FIG. 3B, 3D)", "format": "cell-based", "conditions": "USA300 on fibronectin-coated plates, FIG. 3B", "method": "(§1) FIG. 3. (A) S. epidermidis RP62A biofilms formed on polystyrene and were visualized with crystal violet; addition of the Zn^2+ chelator DTPA (≧30 μM) inhibits biofilm formation. Representative wells have been scanned (bottom). Untreated (“RP62A”) and vehicle (“HCl”) controls are shown. Error bars show standard deviation (* indicates p<0.05 relative to untreated control; n=3); (B) Methicillin-resistant S. aureus USA300 biofilms form on fibronectin-coated plates but are inhibited by addition of DTPA (≧30 μM). (*: p<0.05; n=4); (C) Addition of 5-20 μM ZnCl2 at a minimal inhibitory dose of DTPA (30 μM) rescues biofilm formation by RP62A.\nS. aureus strain USA300, which is responsible for recent epidemic outbreaks of community-acquired methicillin-resistant S. aureus (MRSA) infections, formed biofilms on fibronectin-coated plates. As observed for S. epidermidis, the MRSA biofilms were inhibited by Zn^2+ chelation (≧30 μM DTPA) (FIG. 3B). […] Like S. epidermidis, the MRSA strain USA300 could be rescued by the addition of 15-20 μM ZnCl2 (FIG. 3D). Importantly, at the minimal inhibitory concentration of DTPA (30 μM), biofilm growth by both staphylococcal species could be rescued by the addition of 5-20 μM ZnCl2; these Zn^2+ concentrations are similar to the physiological range in human plasma (12-16 μM resting concentration)."}, "[3]": {"conditions": "Mg; cited from earlier work"}, "[4]": {"conditions": "Ca; cited from earlier work"}, "[5]": {"conditions": "Zn; cited from earlier work"}, "[6]": {"conditions": "Sr; cited from earlier work"}, "[7]": {"system": "Staphylococcus aureus Strain Rosenbach SA113", "test": "Biofilm formation assay in FBS pre-treated 96 well plates, crystal violet (Example 9)", "format": "cell-based", "conditions": "SA113, 2% glucose, 36-40 hours", "method": "In addition, 96 well microtiter plates were pre-treated with fetal bovine serum (FBS) at 4° C. for at least 24 hours prior to use. The FBS was aspirated prior to addition of chelators and glucose for the assay. […] The 96 well plates were then incubated 36-40 hours statically at 37° C. Media was aspirated by pipet and wells were washed twice with filtered water. The plates were dried by inversion for 1 hour, and stained with 0.1% crystal violet for 15 minutes. Crystal violet was then aspirated by pipet and washed once with filtered water. The plates were then read on a spectrophotometer at a wavelength of 570 nm."}, "[8]": {"system": "Methicillin-Resistant Staphylococcus aureus Strain USA300", "test": "Biofilm formation assay in fibronectin pre-treated 96 well plates, crystal violet (Example 11)", "format": "cell-based", "conditions": "USA300, 2% glucose, 36-40 hours", "method": "S. aureus strain USA300 was obtained from Daniel Hassett (University of Cincinnati) as a glycerol stock. 3 ml overnight cultures were grown in blood-heart infusion broth (BHI) shaking at 37° C., where cultures were diluted 1:25 for use in the biofilm assay. 2% glucose (20 ul from a 20% glucose stock) was added to each well prior to the addition of bacterial culture to promote biofilm formation. In addition, 96 well microtiter plates were pre-treated with human fibronectin (BD biomedical purchased from Fisher scientific). The fibronectin was aspirated prior to addition of chelators and glucose for the assay. Each chelator (prepared in Examples 1-6) was added directly to a 96 well microtiter plate in a series of dilutions. 20 μl of each stock solution (200, 400, 800, 1600, 3200, 6400, 13000, or 26000 μM chelator) was added to each well. 200 μl of the 1:25 dilution of USA300 bacterial culture dilution (as previously specified) were added to each well. Controls with bacterial culture media only and bacterial culture media plus vehicle controls only (final concentrations 10 mM HCl, 10% ethanol, and 10 mM NaOH) were added to wells alone without chelator. The 96 well plates were then incubated 36-40 hours statically at 37° C. Media was aspirated by pipet and wells were washed twice with filtered water. The plates were dried by inversion for 1 hour, and stained with 0.1% crystal violet for 15 minutes. Crystal violet was then aspirated by pipet and washed once with filtered water. The plates were then read on a spectrophotometer at a wavelength of 570 nm. An absorbance greater than 0.1 indicates biofilm formation."}, "[9]": {"system": "S. epidermidis RP62A biofilms", "test": "RP62A biofilms on polystyrene visualized with crystal violet (FIG. 3A, 3C, 4, 7, 8)", "format": "cell-based"}, "[10]": {"conditions": "Mn; cited from earlier work"}, "[11]": {"system": "S. epidermidis RP62A biofilms", "test": "RP62A biofilms on polystyrene visualized with crystal violet (FIG. 3A, 3C, 4, 7, 8)", "format": "cell-based", "conditions": "RP62A on polystyrene, FIG. 3A", "method": "as §1\nFIG. 4. […] (*: p<0.05 relative to RP62A control at the relevant Zn^2+ concentration; n=3); (B) Dose response of biofilm inhibition by MBP-Brpt1.5 at a fixed 1 mM ZnCl2 concentration. (*: p<0.0005; n=3); (C) The “zinc zipper” model for intercellular adhesion in staphylococcal biofilms mediated by zinc-dependent self-association of G5 domains.\nFIG. 7. […] All data at 30 μM DTPA show statistically significant decreases compared to no-treatment control (RP62A). Statistically significant increases over the 0 μM MnCl2/30 μM DTPA datapoint are marked with an asterisk (*).\nTo test the physiological role of Zn^2+-mediated G5 adhesion in the formation of staphylococcal biofilms, both S. epidermidis and S. aureus biofilms were grown in culture in the presence or absence of the Zn^2+ chelator diethylenetriaminepentaacetic acid (DTPA). DTPA was non-toxic at all concentrations tested (up to 100 μM). S. epidermidis strain RP62A formed robust biofilms when cultured in media alone, but biofilm growth was inhibited by non-toxic doses of DTPA (≧30 μM) (FIG. 3A).\nTo determine whether Zn^2+-dependent biofilm formation is specifically dependent upon G5 domain-mediated self-assembly, soluble Brpt1.5 was added to S. epidermidis RP62A biofilms as a maltose-binding protein (MBP) fusion. Because of the higher Zn^2+ concentrations required to induce dimerization in the short construct compared to full-length Aap, inhibition by MBP-Brpt1.5 was tested at Zn^2+ concentrations ranging up to 1 mM. RP62A biofilms were inhibited by soluble MBP-Brpt1.5 in the presence of 0.75 and 1 mM ZnCl2, whereas addition of MBP alone had no effect (FIG. 4A). […] Thus, addition of even a single intact zinc adhesion module in a soluble form is capable of inhibiting biofilm formation, highlighting the role of this domain as a Zn^2+-dependent adhesion module in staphylococcal biofilms."}, "[12]": {"target": "Brpt2.5 (Aap construct with two G5 domains and the C-terminal cap) (Staphylococcus epidermidis)"}, "[13]": {"target": "Brpt2.5 (Aap construct with two G5 domains and the C-terminal cap) (Staphylococcus epidermidis)", "test": "sedimentation equilibrium AUC at 10 mM Zn; sequence mass monomer 35,971, dimer 71,942"}, "[14]": {"target": "Brpt2.5 (Aap construct with two G5 domains and the C-terminal cap) (Staphylococcus epidermidis)", "test": "sedimentation equilibrium AUC, monomer-dimer association at 2 mM Zn"}, "[15]": {"target": "Brpt2.5 (Aap construct with two G5 domains and the C-terminal cap) (Staphylococcus epidermidis)", "test": "sedimentation equilibrium AUC at 0 mM Zn; sequence mass monomer 35,971, dimer 71,942"}, "[16]": {"target": "Brpt2.5 (Aap construct with two G5 domains and the C-terminal cap) (Staphylococcus epidermidis)", "test": "sedimentation equilibrium AUC, monomer-dimer association at 5 mM Zn"}, "[17]": {"target": "the molecule itself", "test": "sedimentation velocity analytical ultracentrifugation; self-association with and without 10 mM ZnCl2, normalized c(s) [panel E]"}, "[18]": {"system": "G5 domains of Aap (Zn^2+-mediated monomer-dimer association)", "conditions": "10 mM ZnCl2, pH 7.4 to 6.0, FIG. 6B", "protocol": "The dashed line label (- - -) represents cation-free Brpt1.5; (B) Far-UV CD spectrum of Brpt1.5 in the presence (squares) and absence (triangles) of Zn; (C) Sedimentation equilibrium analysis of Zn^2+-mediated dimerization of Brpt1.5 (triangles) and Brpt2.5 (squares). […] Error bars show 95% confidence intervals; (D) Linked equilibrium plot of Zn binding by Brpt1.5.\n(A) Sedimentation velocity analysis of the Zn^2+-dependent dimerization of Brpt1.5 as a function of pH in 20 mM Tris, 20 mM MES, 50 mM NaCl, and 10 mM ZnCl2. […] Dashed lines show data collected in the absence of Zn^2+, and solid lines show data collected at 10 mM ZnCl2.\nTo analyze the linked equilibria between dimerization and Zn^2+ binding, the logarithm of the dimerization association constant was plotted against the logarithm of the free Zn^2+ concentration to reveal the net number of Zn^2+ ions participating in the dimerization interface."}, "[19]": {"target": "the molecule itself"}, "[20]": {"target": "the molecule itself", "test": "sedimentation equilibrium AUC, monomer-dimer association at 2 mM Zn; 2 mM Zn (ZnCl2), sedimentation equilibrium"}, "[21]": {"target": "the molecule itself", "test": "sedimentation equilibrium AUC, monomer-dimer association at 10 mM Zn; 10 mM Zn (ZnCl2), sedimentation equilibrium"}, "[22]": {"target": "the molecule itself", "test": "sedimentation equilibrium AUC, monomer-dimer association at 5 mM Zn; 5 mM Zn (ZnCl2), sedimentation equilibrium"}}, "note": "Numbering of substitutions follows the chain as printed. Numbers in names are those of the source. Like-named read-outs stand apart in the source and are kept apart here.", "data": [{"molecule": "O=C(O)CN(CCN(CC(=O)O)CC(=O)O)CCN(CC(=O)O)CC(=O)O", "note": "[DTPA, diethylenetriaminepentaacetic acid]", "values": [{"measurement": "chelator concentration at which biofilms were diminished but not cleared", "setting": "[1]", "result": 20, "unit": "µM"}, {"measurement": "chelator concentration at which biofilms were inhibited (absorbance of 0.1 or less)", "setting": "[1]", "result": 40, "unit": "µM"}, {"measurement": "concentration that inhibits biofilm formation", "setting": "[2]", "result": "≥ 30", "unit": "µM"}, {"measurement": "affinity for DTPA (log K)", "setting": "[3]", "result": 9.3}, {"measurement": "affinity for DTPA (log K)", "setting": "[4]", "result": 10.74}, {"measurement": "affinity for DTPA (log K)", "setting": "[5]", "result": 18.75}, {"measurement": "affinity for DTPA (log K)", "setting": "[6]", "result": 9.68}, {"measurement": "chelator concentration at which biofilms were inhibited (absorbance of 0.1 or less)", "setting": "[7]", "result": 20, "unit": "µM"}, {"measurement": "chelator concentration at which biofilms were diminished but not cleared", "setting": "[8]", "result": 20, "unit": "µM"}, {"measurement": "disruption of pre-formed biofilms", "setting": "[9]", "result": "did not disrupt"}, {"measurement": "affinity for DTPA (log K)", "setting": "[10]", "result": 15.5}, {"measurement": "concentration that inhibits biofilm formation", "setting": "[11]", "result": "≥ 30", "unit": "µM"}]}, {"molecule": "Brpt2.5 (Aap construct with two G5 domains and the C-terminal cap)", "values": [{"measurement": "EC50 of [Zn2+] for dimerization", "setting": "[12]", "result": 3.7, "unit": "mM"}, {"measurement": "Mexperimental (molecular weight)", "setting": "[13]", "result": 78500}, {"measurement": "Kd", "setting": "[14]", "result": 25.5, "unit": "µM"}, {"measurement": "Mexperimental (molecular weight)", "setting": "[15]", "result": 37000}, {"measurement": "Kd", "setting": "[16]", "result": 72, "unit": "nM"}]}, {"molecule": "B1", "values": [{"measurement": "binding result", "setting": "[17]", "result": "binds"}]}, {"molecule": "B2", "values": [{"measurement": "apparent pKa of dimer to monomer transition", "setting": "[18]", "result": 6.7}]}, {"molecule": "B3", "values": [{"measurement": "EC50 of [Zn2+] for dimerization", "setting": "[19]", "result": 5.4, "unit": "mM"}, {"measurement": "Kd", "setting": "[20]", "result": 113, "unit": "µM"}, {"measurement": "Kd", "setting": "[21]", "result": 353, "unit": "nM"}, {"measurement": "Kd", "setting": "[22]", "result": 5.06, "unit": "µM"}]}]}
